In patent US10231954B2, “Neurodegenerative therapies” (LYTIX BIOPHARMA AS, priority 2014, dated 2019):
Like-named read-outs stand apart in the source and are kept apart here.

Assays:
Assay type in all cases: biochemical
MPSK1 = MPSK1 (Homo sapiens, UniProt O75716); assay: Kinase profiling MPSK1; conditions: for remaining activity at 100 µM: read-out: residual kinase activity, MPSK1
Source text: (§1) Any value less that 25 is considered to be highly significant inhibition.

CDK2-Cyclin A = CDK2-Cyclin A (Homo sapiens, UniProt P24941); assay: Kinase profiling CDK2-Cyclin A; conditions: for remaining activity at 100 µM: read-out: residual kinase activity, CDK2-Cyclin A
Source text: as §1

TESK1 = TESK1 (Homo sapiens, UniProt Q15569); assay: Kinase profiling TESK1; conditions: for remaining activity at 100 µM: read-out: residual kinase activity, TESK1
Source text: as §1

TAO1 = molecular target: T1, TAO1 (Homo sapiens, UniProt Q7L7X3); assay: Kinase profiling TAO1; conditions: for remaining activity at 100 µM: read-out: residual kinase activity, TAO1
T1 sequence (Q7L7X3 1-1001): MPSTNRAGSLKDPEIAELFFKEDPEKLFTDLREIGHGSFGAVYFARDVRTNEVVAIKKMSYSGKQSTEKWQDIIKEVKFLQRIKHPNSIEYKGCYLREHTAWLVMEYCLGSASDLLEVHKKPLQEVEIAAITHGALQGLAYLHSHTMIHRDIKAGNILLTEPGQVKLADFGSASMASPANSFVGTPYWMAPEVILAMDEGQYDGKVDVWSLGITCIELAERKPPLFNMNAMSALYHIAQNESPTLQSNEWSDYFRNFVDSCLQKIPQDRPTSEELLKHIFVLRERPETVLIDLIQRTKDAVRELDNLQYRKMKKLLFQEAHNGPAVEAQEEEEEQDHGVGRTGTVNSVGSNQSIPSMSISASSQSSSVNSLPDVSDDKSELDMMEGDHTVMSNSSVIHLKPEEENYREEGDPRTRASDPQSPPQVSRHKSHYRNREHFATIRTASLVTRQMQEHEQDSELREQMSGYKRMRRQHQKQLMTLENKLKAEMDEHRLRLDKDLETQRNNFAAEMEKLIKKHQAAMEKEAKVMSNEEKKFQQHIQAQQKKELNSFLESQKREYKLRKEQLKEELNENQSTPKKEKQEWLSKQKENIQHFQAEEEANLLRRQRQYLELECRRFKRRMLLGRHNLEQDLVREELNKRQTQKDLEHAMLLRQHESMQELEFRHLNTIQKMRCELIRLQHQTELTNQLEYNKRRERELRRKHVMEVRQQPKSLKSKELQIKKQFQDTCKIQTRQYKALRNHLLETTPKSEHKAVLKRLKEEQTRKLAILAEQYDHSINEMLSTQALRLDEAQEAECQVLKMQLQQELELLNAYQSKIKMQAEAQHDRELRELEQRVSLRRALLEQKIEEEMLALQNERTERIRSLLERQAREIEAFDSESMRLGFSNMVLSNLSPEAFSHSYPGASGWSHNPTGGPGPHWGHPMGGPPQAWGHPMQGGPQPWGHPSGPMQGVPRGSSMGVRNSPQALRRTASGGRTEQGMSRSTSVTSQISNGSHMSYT
Source text: as §1

DDR2 = molecular target: T2, DDR2 (Homo sapiens, UniProt Q16832); assay: Kinase profiling DDR2; conditions: for remaining activity at 100 µM: read-out: residual kinase activity, DDR2
T2 sequence (Q16832 22-855): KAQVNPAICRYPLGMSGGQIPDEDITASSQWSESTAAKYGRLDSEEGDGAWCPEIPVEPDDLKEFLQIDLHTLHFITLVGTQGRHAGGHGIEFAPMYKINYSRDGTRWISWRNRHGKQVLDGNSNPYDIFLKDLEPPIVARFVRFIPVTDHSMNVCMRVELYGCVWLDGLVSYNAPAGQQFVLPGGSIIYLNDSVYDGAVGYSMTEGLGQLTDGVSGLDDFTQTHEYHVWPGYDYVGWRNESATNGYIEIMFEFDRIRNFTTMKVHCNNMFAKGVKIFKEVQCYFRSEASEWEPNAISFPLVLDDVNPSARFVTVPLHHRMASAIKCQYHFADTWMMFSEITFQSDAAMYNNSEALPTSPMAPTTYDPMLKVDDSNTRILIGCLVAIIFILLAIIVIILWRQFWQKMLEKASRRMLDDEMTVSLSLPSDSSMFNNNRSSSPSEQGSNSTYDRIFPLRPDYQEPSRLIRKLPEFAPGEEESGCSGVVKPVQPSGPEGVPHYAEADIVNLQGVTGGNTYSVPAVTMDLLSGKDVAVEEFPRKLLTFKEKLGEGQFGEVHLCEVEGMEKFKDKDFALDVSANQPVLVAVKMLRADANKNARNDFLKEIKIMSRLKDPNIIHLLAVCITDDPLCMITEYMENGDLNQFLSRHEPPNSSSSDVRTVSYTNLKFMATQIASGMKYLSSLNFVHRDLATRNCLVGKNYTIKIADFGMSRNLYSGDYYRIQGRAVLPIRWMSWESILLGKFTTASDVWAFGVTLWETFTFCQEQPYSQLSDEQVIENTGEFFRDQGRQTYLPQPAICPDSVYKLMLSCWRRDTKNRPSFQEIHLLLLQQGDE
Source text: as §1

WNK1 = WNK1 (Homo sapiens, UniProt Q9H4A3); assay: Kinase profiling WNK1; conditions: for remaining activity at 100 µM: read-out: residual kinase activity, WNK1
Source text: as §1

CHK1 = molecular target: T3, CHK1 (Homo sapiens, UniProt O14757); assay: Kinase profiling CHK1; conditions: for remaining activity at 100 µM: read-out: residual kinase activity, CHK1
T3 sequence (O14757 1-476): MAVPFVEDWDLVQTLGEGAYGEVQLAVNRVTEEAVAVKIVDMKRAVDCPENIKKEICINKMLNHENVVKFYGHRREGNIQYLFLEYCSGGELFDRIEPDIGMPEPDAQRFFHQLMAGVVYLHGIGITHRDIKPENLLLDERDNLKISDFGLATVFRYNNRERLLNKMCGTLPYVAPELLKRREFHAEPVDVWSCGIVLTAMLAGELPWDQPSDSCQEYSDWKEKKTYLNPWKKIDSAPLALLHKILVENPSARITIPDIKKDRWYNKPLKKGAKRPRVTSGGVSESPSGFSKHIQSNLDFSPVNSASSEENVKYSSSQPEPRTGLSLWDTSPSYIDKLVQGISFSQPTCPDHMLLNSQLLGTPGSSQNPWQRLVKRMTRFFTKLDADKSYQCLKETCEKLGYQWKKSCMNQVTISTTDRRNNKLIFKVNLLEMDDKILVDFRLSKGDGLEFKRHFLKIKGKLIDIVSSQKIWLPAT
Source text: as §1

PAK6 = PAK6 (Homo sapiens, UniProt Q9NQU5); assay: Kinase profiling PAK6; conditions: for remaining activity at 100 µM: read-out: residual kinase activity, PAK6
Source text: as §1

CDK9-Cyclin T1 = CDK9-Cyclin T1 (Homo sapiens, UniProt P50750); assay: Kinase profiling CDK9-Cyclin T1; conditions: for remaining activity at 100 µM: read-out: residual kinase activity, CDK9-Cyclin T1
Source text: as §1

TTBK2 = TTBK2 (Homo sapiens, UniProt Q6IQ55); assay: Kinase profiling TTBK2; conditions: for remaining activity at 100 µM: read-out: residual kinase activity, TTBK2
Source text: as §1

[1] = 100 micromolar inhibitor concentration, 100 is no change
[2] = 100 micromolar inhibitor, 100 = no change

MPSK1, sequence (O75716 whole entry, species assumed): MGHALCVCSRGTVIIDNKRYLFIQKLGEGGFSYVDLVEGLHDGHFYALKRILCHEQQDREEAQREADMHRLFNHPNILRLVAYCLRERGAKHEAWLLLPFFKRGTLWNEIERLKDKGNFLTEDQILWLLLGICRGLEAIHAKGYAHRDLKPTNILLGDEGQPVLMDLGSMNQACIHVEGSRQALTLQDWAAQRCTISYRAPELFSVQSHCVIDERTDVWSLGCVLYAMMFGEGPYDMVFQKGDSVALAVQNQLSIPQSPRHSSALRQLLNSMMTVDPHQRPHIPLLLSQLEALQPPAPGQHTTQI
CDK9-Cyclin T1, sequence (P50750 whole entry): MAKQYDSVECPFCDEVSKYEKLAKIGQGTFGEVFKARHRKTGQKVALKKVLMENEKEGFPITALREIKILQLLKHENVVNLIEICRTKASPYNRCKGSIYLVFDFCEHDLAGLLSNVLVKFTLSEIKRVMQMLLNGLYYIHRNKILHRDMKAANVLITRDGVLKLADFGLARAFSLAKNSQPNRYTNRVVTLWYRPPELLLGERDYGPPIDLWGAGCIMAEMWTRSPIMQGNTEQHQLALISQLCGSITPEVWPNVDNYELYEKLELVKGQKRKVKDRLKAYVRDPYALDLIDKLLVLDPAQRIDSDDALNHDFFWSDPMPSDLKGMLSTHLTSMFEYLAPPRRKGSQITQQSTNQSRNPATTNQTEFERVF
CDK9-Cyclin T1, sequence (O60563 whole entry partner): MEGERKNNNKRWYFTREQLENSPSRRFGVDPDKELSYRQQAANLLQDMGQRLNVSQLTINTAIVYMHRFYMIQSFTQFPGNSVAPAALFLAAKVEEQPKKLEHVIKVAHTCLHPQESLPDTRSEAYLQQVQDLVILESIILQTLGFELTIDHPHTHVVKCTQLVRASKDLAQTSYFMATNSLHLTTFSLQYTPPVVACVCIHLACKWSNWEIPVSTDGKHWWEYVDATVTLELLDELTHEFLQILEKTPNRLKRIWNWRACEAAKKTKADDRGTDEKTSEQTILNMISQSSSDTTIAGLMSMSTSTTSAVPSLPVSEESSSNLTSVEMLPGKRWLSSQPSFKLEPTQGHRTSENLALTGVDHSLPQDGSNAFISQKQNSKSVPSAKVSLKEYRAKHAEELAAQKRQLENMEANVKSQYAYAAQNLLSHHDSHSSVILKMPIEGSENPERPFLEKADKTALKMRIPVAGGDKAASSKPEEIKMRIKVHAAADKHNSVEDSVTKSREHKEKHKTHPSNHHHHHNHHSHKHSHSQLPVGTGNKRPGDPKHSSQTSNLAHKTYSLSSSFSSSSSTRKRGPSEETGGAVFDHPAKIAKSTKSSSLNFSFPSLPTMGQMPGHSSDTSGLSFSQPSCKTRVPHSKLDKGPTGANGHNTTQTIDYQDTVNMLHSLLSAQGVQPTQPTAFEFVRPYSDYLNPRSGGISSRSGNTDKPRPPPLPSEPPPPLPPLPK
PAK6, sequence (Q9NQU5 whole entry, species assumed): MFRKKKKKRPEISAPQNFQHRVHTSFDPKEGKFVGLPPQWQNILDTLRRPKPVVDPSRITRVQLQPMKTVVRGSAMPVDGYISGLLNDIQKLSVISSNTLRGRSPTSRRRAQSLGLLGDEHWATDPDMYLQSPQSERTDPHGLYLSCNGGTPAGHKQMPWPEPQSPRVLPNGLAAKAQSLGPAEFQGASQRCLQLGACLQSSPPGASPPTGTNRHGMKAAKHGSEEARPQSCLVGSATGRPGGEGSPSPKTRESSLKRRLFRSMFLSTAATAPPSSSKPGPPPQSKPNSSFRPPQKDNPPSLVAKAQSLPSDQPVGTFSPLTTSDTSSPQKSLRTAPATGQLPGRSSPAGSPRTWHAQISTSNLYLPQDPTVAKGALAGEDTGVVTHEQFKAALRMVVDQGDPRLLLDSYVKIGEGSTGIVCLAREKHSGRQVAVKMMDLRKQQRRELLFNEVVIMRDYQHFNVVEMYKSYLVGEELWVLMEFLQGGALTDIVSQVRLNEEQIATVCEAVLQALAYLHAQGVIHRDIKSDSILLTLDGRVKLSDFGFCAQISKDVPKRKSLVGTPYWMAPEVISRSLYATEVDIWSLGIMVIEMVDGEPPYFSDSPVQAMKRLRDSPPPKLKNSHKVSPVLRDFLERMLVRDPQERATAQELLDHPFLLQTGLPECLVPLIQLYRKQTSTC
TESK1, sequence (Q15569 whole entry, species assumed): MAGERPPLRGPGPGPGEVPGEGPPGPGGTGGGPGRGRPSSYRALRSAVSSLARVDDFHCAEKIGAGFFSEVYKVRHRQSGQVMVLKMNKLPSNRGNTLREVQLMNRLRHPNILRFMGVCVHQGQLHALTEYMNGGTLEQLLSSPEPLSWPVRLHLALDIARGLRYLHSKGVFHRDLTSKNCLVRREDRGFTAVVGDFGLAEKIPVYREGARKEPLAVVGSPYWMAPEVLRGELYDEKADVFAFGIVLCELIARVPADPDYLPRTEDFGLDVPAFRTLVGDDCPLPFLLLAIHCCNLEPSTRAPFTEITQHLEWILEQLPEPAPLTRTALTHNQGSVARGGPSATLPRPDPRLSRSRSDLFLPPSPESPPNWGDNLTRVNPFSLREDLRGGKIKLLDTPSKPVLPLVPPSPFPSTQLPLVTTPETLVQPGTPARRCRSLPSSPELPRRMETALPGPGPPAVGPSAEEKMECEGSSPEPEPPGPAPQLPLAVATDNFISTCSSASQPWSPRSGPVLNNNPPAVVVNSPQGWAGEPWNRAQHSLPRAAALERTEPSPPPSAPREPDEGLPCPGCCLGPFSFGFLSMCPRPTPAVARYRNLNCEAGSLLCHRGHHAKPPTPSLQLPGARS
TTBK2, sequence (Q6IQ55 whole entry, species assumed): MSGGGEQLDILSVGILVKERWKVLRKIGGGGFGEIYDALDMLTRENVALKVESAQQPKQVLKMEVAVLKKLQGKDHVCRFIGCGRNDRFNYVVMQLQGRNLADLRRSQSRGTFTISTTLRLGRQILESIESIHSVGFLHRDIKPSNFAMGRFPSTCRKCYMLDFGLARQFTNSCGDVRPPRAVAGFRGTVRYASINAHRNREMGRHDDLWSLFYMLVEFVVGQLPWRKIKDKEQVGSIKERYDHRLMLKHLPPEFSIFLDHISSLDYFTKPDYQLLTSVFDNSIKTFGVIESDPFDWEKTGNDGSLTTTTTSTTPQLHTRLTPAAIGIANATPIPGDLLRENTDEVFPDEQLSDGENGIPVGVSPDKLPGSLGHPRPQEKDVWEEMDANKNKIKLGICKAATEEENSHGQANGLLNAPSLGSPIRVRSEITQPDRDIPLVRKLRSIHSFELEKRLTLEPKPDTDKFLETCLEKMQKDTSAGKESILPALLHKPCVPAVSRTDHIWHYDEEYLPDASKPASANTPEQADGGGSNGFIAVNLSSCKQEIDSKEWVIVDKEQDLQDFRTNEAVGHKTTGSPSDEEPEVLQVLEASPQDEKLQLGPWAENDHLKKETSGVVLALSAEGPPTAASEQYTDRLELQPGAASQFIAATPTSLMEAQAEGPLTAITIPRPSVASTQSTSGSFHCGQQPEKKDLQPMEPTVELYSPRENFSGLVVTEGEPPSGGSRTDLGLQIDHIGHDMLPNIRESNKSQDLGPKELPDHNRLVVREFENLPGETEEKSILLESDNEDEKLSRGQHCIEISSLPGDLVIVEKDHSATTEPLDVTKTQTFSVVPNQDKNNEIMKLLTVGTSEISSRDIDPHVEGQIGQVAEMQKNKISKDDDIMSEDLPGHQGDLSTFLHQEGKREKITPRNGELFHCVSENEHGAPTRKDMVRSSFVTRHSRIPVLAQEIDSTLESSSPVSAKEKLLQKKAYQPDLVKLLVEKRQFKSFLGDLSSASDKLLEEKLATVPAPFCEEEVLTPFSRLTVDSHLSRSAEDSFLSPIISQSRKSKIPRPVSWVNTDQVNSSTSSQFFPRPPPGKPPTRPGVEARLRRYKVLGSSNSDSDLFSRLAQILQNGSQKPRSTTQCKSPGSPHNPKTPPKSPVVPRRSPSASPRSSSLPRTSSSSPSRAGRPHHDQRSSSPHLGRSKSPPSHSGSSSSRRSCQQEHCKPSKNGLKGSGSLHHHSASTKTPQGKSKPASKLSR

Work on CC(=O)Nc1nc2cc(O)ccc2s1 [Compound 01-66, N-(5-hydroxybenzo[d]thiazol-2-yl)acetamide] yielded a remaining activity at 100 µM (MPSK1) of 80%, a remaining activity at 100 µM (CDK2-Cyclin A) of 71% and a remaining activity at 100 µM (TESK1) of 94%. For the same compound, the remaining activity at 100 µM (TAO1) was 30%, the remaining activity at 100 µM (DDR2) was 65% and the remaining activity at 100 µM (WNK1) was 101%. For the same compound, the remaining activity at 100 µM (CHK1) was 75%, the remaining activity at 100 µM (PAK6) was 90% and the remaining activity at 100 µM (CDK9-Cyclin T1) was 85%.
Compound CC(=O)Nc1nc2ccc(O)cc2s1 [Compound 01-71] has a remaining activity at 100 µM (MPSK1; [1]) of 77%, a remaining activity at 100 µM (CDK2-Cyclin A; [1]) of 30% and a remaining activity at 100 µM (TESK1; [1]) of 61%. The remaining activity at 100 µM (TAO1; [1]) was 29%, the remaining activity at 100 µM (DDR2; [1]) was 56% and the remaining activity at 100 µM (WNK1; [1]) was 96%. For the same compound, the remaining activity at 100 µM (CHK1; [1]) was 82%, the remaining activity at 100 µM (PAK6; [1]) was 81% and the remaining activity at 100 µM (CDK9-Cyclin T1; [1]) was 48%.
CC(=O)Nc1nc2ccc(C(F)(F)F)cc2s1 [Compound 01-90] was tested, and the remaining activity at 100 µM (MPSK1; [1]) was 105%, the remaining activity at 100 µM (CDK2-Cyclin A; [1]) was 22% and the remaining activity at 100 µM (TESK1; [1]) was 93%. It also gave a remaining activity at 100 µM (TAO1; [1]) of 71%, a remaining activity at 100 µM (DDR2; [1]) of 62% and a remaining activity at 100 µM (WNK1; [1]) of 100%. It also gave a remaining activity at 100 µM (CHK1; [1]) of 97%, a remaining activity at 100 µM (TTBK2; [1]) of 98% and a remaining activity at 100 µM (PAK6; [1]) of 106%. The remaining activity at 100 µM (CDK9-Cyclin T1; [1]) was 26%.
CC(=O)Nc1nc2ccc(C#N)cc2s1 [Compound 01-94] gave a remaining activity at 100 µM (MPSK1; [1]) of 94%, a remaining activity at 100 µM (CDK2-Cyclin A; [1]) of 11% and a remaining activity at 100 µM (TESK1; [1]) of 90%. For the same compound, the remaining activity at 100 µM (TAO1; [1]) was 46%, the remaining activity at 100 µM (DDR2; [1]) was 93% and the remaining activity at 100 µM (WNK1; [1]) was 101%. The remaining activity at 100 µM (CHK1; [1]) was 96%, the remaining activity at 100 µM (TTBK2; [1]) was 78% and the remaining activity at 100 µM (PAK6; [1]) was 92%. It also gave a remaining activity at 100 µM (CDK9-Cyclin T1; [1]) of 15%.
CC(=O)Nc1cccc(NC(=O)c2nc3ccc(O)cc3s2)c1 [Compound 03-07, N-(3-acetamidophenyl)-6-hydroxybenzo[d]thiazole-2-carboxamide] was tested, and the remaining activity at 100 µM (MPSK1; [2]) was 108%, the remaining activity at 100 µM (CDK2-Cyclin A; [2]) was 99% and the remaining activity at 100 µM (TESK1; [2]) was 101%. The remaining activity at 100 µM (TAO1; [2]) was 84%, the remaining activity at 100 µM (DDR2; [2]) was 90% and the remaining activity at 100 µM (WNK1; [2]) was 115%. For the same compound, the remaining activity at 100 µM (CHK1; [2]) was 113%, the remaining activity at 100 µM (TTBK2; [2]) was 71% and the remaining activity at 100 µM (PAK6; [2]) was 106%. For the same compound, the remaining activity at 100 µM (CDK9-Cyclin T1; [2]) was 76%.
In the case of O=C(Nc1nc2cc(O)ccc2s1)c1ccncc1 [Compound 03-11], the “residual kinase activity, MPSK1” value (MPSK1; [1]) was 73, the “residual kinase activity, CDK2-Cyclin A” value (CDK2-Cyclin A; [1]) was 98 and the “residual kinase activity, TESK1” value (TESK1; [1]) was 88. The “residual kinase activity, TAO1” value (TAO1; [1]) was 77, the “residual kinase activity, DDR2” value (DDR2; [1]) was 115 and the “residual kinase activity, WNK1” value (WNK1; [1]) was 88. The “residual kinase activity, CHK1” value (CHK1; [1]) was 78, the “residual kinase activity, TTBK2” value (TTBK2; [1]) was 99 and the “residual kinase activity, PAK6” value (PAK6; [1]) was 90. For the same compound, the “residual kinase activity, CDK9-Cyclin T1” value (CDK9-Cyclin T1; [1]) was 68.
With O=C(Nc1nc2ccc(O)cc2s1)c1ccccn1 [Compound 03-12] the “residual kinase activity, MPSK1” value (MPSK1; [1]) was 90, the “residual kinase activity, CDK2-Cyclin A” value (CDK2-Cyclin A; [1]) was 87 and the “residual kinase activity, TESK1” value (TESK1; [1]) was 84. For the same compound, the “residual kinase activity, TAO1” value (TAO1; [1]) was 74, the “residual kinase activity, DDR2” value (DDR2; [1]) was 104 and the “residual kinase activity, WNK1” value (WNK1; [1]) was 91. For the same compound, the “residual kinase activity, CHK1” value (CHK1; [1]) was 90, the “residual kinase activity, TTBK2” value (TTBK2; [1]) was 102 and the “residual kinase activity, PAK6” value (PAK6; [1]) was 101. For the same compound, the “residual kinase activity, CDK9-Cyclin T1” value (CDK9-Cyclin T1; [1]) was 76.
For O=C(Nc1nc2cc(O)ccc2s1)c1ccccn1 [Compound 03-13], the “residual kinase activity, MPSK1” value (MPSK1; [1]) was 102, the “residual kinase activity, CDK2-Cyclin A” value (CDK2-Cyclin A; [1]) was 91 and the “residual kinase activity, TESK1” value (TESK1; [1]) was 93. For the same compound, the “residual kinase activity, TAO1” value (TAO1; [1]) was 80, the “residual kinase activity, DDR2” value (DDR2; [1]) was 85 and the “residual kinase activity, WNK1” value (WNK1; [1]) was 100. The “residual kinase activity, CHK1” value (CHK1; [1]) was 88, the “residual kinase activity, TTBK2” value (TTBK2; [1]) was 71 and the “residual kinase activity, PAK6” value (PAK6; [1]) was 99. The “residual kinase activity, CDK9-Cyclin T1” value (CDK9-Cyclin T1; [1]) was 93.
In the case of COc1ccc2sc(NC(C)=O)nc2c1 [Compound 03-21], the remaining activity at 100 µM (MPSK1; [1]) was 97%, the remaining activity at 100 µM (CDK2-Cyclin A; [1]) was 93% and the remaining activity at 100 µM (TESK1; [1]) was 104%. For the same compound, the remaining activity at 100 µM (TAO1; [1]) was 72%, the remaining activity at 100 µM (DDR2; [1]) was 102% and the remaining activity at 100 µM (WNK1; [1]) was 121%. The remaining activity at 100 µM (CHK1; [1]) was 110%, the remaining activity at 100 µM (TTBK2; [1]) was 84% and the remaining activity at 100 µM (PAK6; [1]) was 108%. The remaining activity at 100 µM (CDK9-Cyclin T1; [1]) was 90%.
